Test results as given in patent US20200268793A1, “METHODS AND COMPOSITIONS FOR ALLEVIATING CYTOKINE RELEASE SYNDROME” (MEMORIAL SLOAN-KETTERING CANCER CENTER, priority 2017, published 2020).
“Also recorded” adds a separate entry of the source. Read-outs that look alike come from different tables or passages of the source.

Legend:
[1] = test system: SCID-beige mice with established intraperitoneal Raji tumors; test: CRS mouse model: survival, weight change, toxicity and histopathology after CAR T cell transfer; type: in vivo; settings: tumor bearing mice after 1928z CAR T cell transfer; for CRS-associated mortality (percent survival) under treatment: agent given intraperitoneally once per day for 5 days; for Toxicity as witnessed by weight loss (percent weight change) under treatment: 5 mg/kg intraperitoneally once per day
Experimental: Mice were treated under a protocol approved by the MSKCC Institutional Animal Care and Use Committee. CRS Model: 6-8 week old female C.B.Igh-1b/GbmsTac-Prkdc^scidLyst^bgN7 (SCID-beige) mice (Taconic) were intraperitoneally injected with 3 million Raji-GFP-Fluc cells and tumors were left to grow for 20 days. Tumor burden was evaluated by in vivo bioluminescent imaging two days prior to CAR T cell transfer. Outliers, mice with inconsistently higher or lower tumor burdens were excluded from the experiment. Mice were injected intraperitoneally with 30 million CAR^+ T cells in PBS supplemented with 2% Human Serum. Control mice received PBS supplemented with 2% Human Serum. Stress test model: 6-8 week-old male NOD.Cg-Prkdc^scidIl2rg^tmWjl/SzJ (NSG) mice (Jackson Laboratory) were inoculated with 0.5×10^6 NALM-6-GFP-Fluc cells by tail vein injection followed by with 0.2×10^6 or with 0.5×10^6 CAR T cells four days later. Bioluminescence imaging utilized the Xenogen IVIS Imaging System (Xenogen) with Living Image software (Xenogen) for acquisition of imaging datasets. Tumor Burden was assessed as previously described^34.
(§1) Anakinra was administered intraperitoneally at 30 mg/kg once per day for 5 days, starting 5 hours prior to CAR T cell transfer. Anti-murine IL-6 (clone MP5-20F3, BioXcell) and anti-murine IL-6R (clone 15A7, BioXcell) were administered intraperitoneally once per day at 25 mg/kg for the first dose and 12.5 mg/kg for subsequent doses for 5 days starting 5 hours prior to CAR T cell transfer. L-NIL (Enzo Life Sciences) or 1400W (Cayman Chemical) were administered intraperitoneally at 5 mg/kg once per day for 5 days starting 5 hours prior to CAR T cell transfer.
Mice were transferred to the pathology core facility of Memorial Sloan Kettering where they were sacrificed by cardiac puncture. Tissues obtained were fixed in 10% buffered formalin and were further processed for H&E staining and immunohistochemistry.
To model CAR T cell-induced CRS, conditions were established whereby a high number of CD19 CAR T cells engaged a high tumor burden and yielded overt toxicity within 2-3 days^2-5 (FIG. 1A). […] The overall levels of these cytokines, including mIL6, mCCL2, mG-CSF, hIL-3, hIFN-γ, hGM-CSF, hIL-2 correlated strongly with CRS severity and survival (FIGS. 1E-1L and 1S). The xenogeneic nature of this model was taken advantage of to discern the origin of these cytokines and chemokines. Thus, IL-6 was produced by endogenous murine cells while IFN-γ and GM-CSF were products of the CART cells. mIL6 and hIL6.^12, were not elevated in the absence of CART cells (FIGS. 1M-1O, 1T and 5D), establishing that this cardinal feature of CRS was the result a multicellular interaction and not the outcome of a T cell-tumor cell interaction.

iNOS = iNOS expression in peritoneal macrophages by intracellular flow cytometry in CRS mice; type: in vivo, mouse; settings: 18 hours post CAR T cell transfer
Experimental: as §1
Antibodies were titrated for optimal staining. The following fluorophore conjugated antibodies were used (“h” prefix denotes anti-human, “m” prefix denotes anti-mouse): hCD4 BUV395 (clone RPA-T4, BD), hCD8 PE-Cy7 (clone SK1, eBioscience), hCD3 PerCP-efluor710 (clone OKT3, eBioscience), hCD19 BUV737 (clone SJ25C1, BD), hLNGFR BB515 (clone C40-1457, BD), mF4/80 BV421 and BV711 (clone T45-2342, BD), mLy6C Alexa Fluor 647 and BV786 (clone ER-MP20, AbdSerotec and clone HK1.4, BioLegend respectively), mMHCII BB515 (clone 2G9, BD), mCD11c BV650 (clone N418, BioLegend), mLy6G APC-Fire750 (clone 1A8, BioLegend), mSIGLEC-F PE-CF594 (clone E50-2440, BD), mCD40 BV786 (clone 3/23, BD), mCD40L PE (clone MR1, BD), mCD11b BUV395 (clone M1/70, BD), mNOS2 PE-Cy7 (clone CXNFT, eBioscience). […]

cognate murine receptor = settings: cytokines of human origin, cited from earlier work
cognate human receptor = settings: cytokines of murine origin; cited from earlier work

Anakinra: IL-1Ra polypeptide used for IL-1 blockade
CRS-associated mortality (percent survival) under treatment [1]: completely abrogated CRS-related mortality | iNOS+ macrophage fraction (iNOS): similarly reduced

GM-CSF: cytokine of human origin
Human on mouse (active on the cognate murine receptor) (cognate murine receptor): lack of activity; also recorded: No^39

IL-17: cytokine of human origin
Human on mouse (active on the cognate murine receptor) (cognate murine receptor): Yes^40

IL-13: cytokine of human origin
Human on mouse (active on the cognate murine receptor) (cognate murine receptor): Yes^40

human CD40L: CD40 ligand, mainly expressed by T cells
Human on mouse (active on the cognate murine receptor) (cognate murine receptor): does not functionally interact

IL-10: cytokine of human origin
Human on mouse (active on the cognate murine receptor) (cognate murine receptor): Yes^40

IFNg: cytokine of human origin
Human on mouse (active on the cognate murine receptor) (cognate murine receptor): No^38 | Human on mouse (active on the cognate murine receptor) (cognate murine receptor; listed as human IFN-γ): lack of activity

CC(=N)NCc1cccc(CN)c1 [1400W]
Toxicity as witnessed by weight loss (percent weight change) under treatment [1]: reversed toxicity | CRS-associated mortality (percent survival) under treatment [1]: significantly prevented mortality

CC(=N)NCCCC[C@H](N)C(=O)O [L-NIL, L-N6-(1-iminoethyl)lysine]
Toxicity as witnessed by weight loss (percent weight change) under treatment [1]: robust reversal of toxicity

IL-8: cytokine of human origin
Human on mouse (active on the cognate murine receptor) (cognate murine receptor): Yes^40

TNFa
Human on mouse (active on the cognate murine receptor) (cognate murine receptor): Partial^40 | Human on mouse (active on the cognate murine receptor) (cognate murine receptor; listed as Human TNF-α): can signal through the murine p55 TNF receptor but not the p75 TNF receptor

B1: IL-15: cytokine of murine origin (protein, UniProt P48346 49-162, looked up)
Interleukin-15: NWIDVRYDLEKIESLIQSIHIDTTLYTDSDFHPSCKVTAMNCFLLELQVILHEYSNMTLNETVRNVLYLANSTLSSNKNVAESGCKECEELEEKTFTEFLQSFIRIVQMFINTS
Mouse on human (active on the cognate human receptor) (cognate human receptor): Yes^39

B2: IL-6: cytokine of murine origin (protein, UniProt P08505 25-211, looked up)
Interleukin-6: FPTSQVRRGDFTEDTTPNRPVYTTSQVGGLITHVLWEIVEMRKELCNGNSDCMNNDDALAENNLKLPEIQRNDGCYQTGYNQEICLLKISSGLLEYHSYLEYMKNNLKDNKKDKARVLQRDTETLIHIFNQEVKDLHKIVLPTPISNALLTDKLESQKEWLRTKTIQFILKSLEEFLKVTLRSTRQT
Mouse on human (active on the cognate human receptor) (cognate human receptor): No^39

B3: IL-5: cytokine of murine origin (protein, UniProt P04401 21-133, looked up)
Interleukin-5: MEIPMSTVVKETLTQLSAHRALLTSNETMRLPVPTHKNHQLCIGEIFQGLDILKNQTVRGGTVEMLFQNLSLIKKYIDRQKEKCGEERRRTRQFLDYLQEFLGVMSTEWAMEG
Mouse on human (active on the cognate human receptor) (cognate human receptor): Yes^40
